Experimental data: patent US20240409585A1, “MACROCYCLIC IMMUNOMODULATORS” (priority 2021, published 2024)
Bridge positions count the residues as written; N and C are the ends. Square brackets hold non-standard residues; d marks the D form. Peptide text beside a SMILES is read from it. * marks the point of attachment. ξ: configuration not given here. Phe(4-COOH) = N[C@@H](Cc1ccc(C(=O)O)cc1)C(=O)O; Bip = N[C@@H](Cc1ccc(-c2ccccc2)cc1)C(=O)O; Phe(3-CN) = N#Cc1cccc(C[C@H](N)C(=O)O)c1; Phe(3-F) = N[C@@H](Cc1cccc(F)c1)C(=O)O; Phe(3-Me) = Cc1cccc(C[C@H](N)C(=O)O)c1; Val(3-OH) = CC(C)(O)[C@H](N)C(=O)O; 4Pal = N[C@@H](Cc1ccncc1)C(=O)O; Cha = N[C@@H](CC1CCCCC1)C(=O)O; Ile(3ξ) = CCC(C)[C@H](N)C(=O)O; dNle = CCCC[C@@H](N)C(=O)O; Pip = O=C(O)[C@@H]1CCCCN1; Carboxymethyl = O=C(O)C*; NMeA = CN[C@@H](C)C(=O)O; Pra = C#CC[C@H](N)C(=O)O; Dab = NCC[C@H](N)C(=O)O; Dap = NC[C@H](N)C(=O)O; NH(CH2)5NH2 = NCCCCCN*; ξV = CC(C)C(N)C(=O)O

These molecules were tested against T1, PE-labeled human PD-L1-Ig binding to Jurkat cell line over-expressing human PD-1 (Jurkat-PD-1) (Homo sapiens, UniProt Q15116) (assay: Jurkat-PD-1 Cell Binding High-Content Screening Assay (CBA): Method 1). Conditions: Jurkat-hPD-1 cells, PE-labeled PD-L1-Ig 20 nM final; read-out: Jurkat HPDL1 PD1 IC50 (uM) (Method 1).
T1 construct: expressed in transfected cells; host or cells: Jurkat
T1 sequence (Q15116 25-288): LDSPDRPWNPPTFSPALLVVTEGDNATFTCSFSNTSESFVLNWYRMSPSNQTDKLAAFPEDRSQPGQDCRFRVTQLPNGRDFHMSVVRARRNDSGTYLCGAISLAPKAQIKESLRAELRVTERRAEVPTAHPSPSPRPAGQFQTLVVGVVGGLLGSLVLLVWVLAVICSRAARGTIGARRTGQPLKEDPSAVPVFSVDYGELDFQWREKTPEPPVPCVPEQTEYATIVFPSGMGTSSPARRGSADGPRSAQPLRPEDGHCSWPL

SMILES | IC50 [µM]
CCNC(=O)[C@H](CCN)NC(=O)[C@@H]1CSCC(=O)N[C@@H](Cc2ccncc2)C(=O)N[C@@H](Cc2cccc(C#N)c2)C(=O)N[C@@H](CC(=O)O)C(=O)N[C@@H](Cc2cccc(C)c2)C(=O)N[C@@H](Cc2cccc(F)c2)C(=O)N[C@@H](Cc2ccc(-c3ccccc3)cc2)C(=O)N[C@@H](Cc2ccc(OCC(=O)O)cc2)C(=O)N(C)[C@@H](C)C(=O)N[C@H](CC(C)C)C(=O)N[C@@H](CCN)C(=O)N[C@@H](CC2CCCCC2)C(=O)N[C@@H](C(C)(C)O)C(=O)N[C@@H](CO)C(=O)N1 [Compound 1843] ({CH2CO}-[4Pal][Phe(3-CN)]D[Phe(3-Me)][Phe(3-F)][Bip]Y(Carboxymethyl)[NMeA][dL][Dab][Cha][Val(3-OH)]SC[Dab]-NHEt; thioether N-14) | 0.01
CC(C)C[C@@H]1NC(=O)[C@H](Cc2c[nH]c3ccccc23)NC(=O)[C@H](CC(=O)O)NC(=O)[C@H](Cc2ccc(O)cc2)NC(=O)[C@H](Cc2ccccc2)NC(=O)CSC[C@@H](C(=O)N[C@@H](C)C(N)=O)NC(=O)[C@H]([C@@H](C)O)NC(=O)[C@H](CN)NC(=O)[C@H](CC(C)C)NC(=O)[C@H](CC(N)=O)NC(=O)[C@@H](C)NC(=O)[C@H](C)N(C)C(=O)[C@H](C(C)C)NC(=O)[C@H](Cc2ccc(-c3ccccc3)cc2)NC1=O [Compound 1535] ({CH2CO}-FYDWL[Bip]V[NMeA][dA]NL[Dap]TCA-NH2; thioether N-14) | 0.36
CC(C)C[C@H]1NC(=O)[C@@H]2CCCCN2C(=O)[C@H](Cc2c[nH]cn2)NC(=O)[C@H](Cc2ccc(-c3ccccc3)cc2)NC(=O)[C@H](C(C)C)NC(=O)[C@H](Cc2c[nH]c3ccccc23)NC(=O)[C@H](CC(=O)O)NC(=O)[C@H](Cc2ccc(C(=O)O)cc2)NC(=O)[C@H](Cc2ccncc2)NC(=O)CSC[C@@H](C(=O)N[C@H](C)C(N)=O)NC(=O)[C@H](CO)NC(=O)[C@H](C(C)C)NC(=O)[C@H](CC2CCCCC2)NC(=O)[C@H](CCN)NC1=O [Compound 2125] ({CH2CO}-[4Pal][Phe(4-COOH)]DWV[Bip]H[Pip][dL][Dab][Cha]VSC[dA]-NH2; thioether N-14) | 0.04
CC(C)C[C@@H]1NC(=O)[C@H](CCCNC(=N)N)NC(=O)[C@@H](CC(C)C)NC(=O)[C@H](C)N(C)C(=O)[C@H](CCC(=O)O)NC(=O)[C@H](Cc2ccc(-c3ccccc3)cc2)NC(=O)[C@H](C(C)C)NC(=O)[C@H](Cc2c[nH]c3ccccc23)NC(=O)[C@H](CC(=O)O)NC(=O)[C@H](Cc2ccc(O)cc2)NC(=O)[C@H](CC(N)=O)NC(=O)CSC[C@@H](C(=O)N[C@@H](C)C(N)=O)NC(=O)[C@H](CO)NC(=O)[C@H](C(C)C)NC1=O [Compound 1256] ({CH2CO}-NYDWV[Bip]E[NMeA][dL]RLVSCA-NH2; thioether N-14) | 0.06
Cc1cccc(C[C@@H]2NC(=O)[C@H](CC(=O)O)NC(=O)[C@H](Cc3ccc(OCC(=O)O)cc3)NC(=O)[C@H](CN)NC(=O)CSC[C@@H](C(N)=O)NC(=O)[C@H](CC(=O)O)NC(=O)[C@H](C(C)C)NC(=O)[C@H](CC3CCCCC3)NC(=O)[C@H](CCN)NC(=O)[C@@H](CC(C)C)NC(=O)[C@@H]3CCCCN3C(=O)[C@H](Cc3ccc(OCC(=O)O)cc3)NC(=O)[C@H](Cc3ccc(-c4ccccc4)cc3)NC(=O)[C@H](Cc3ccc(OCC(=O)O)cc3)NC2=O)c1 [Compound 1893] ({CH2CO}-[Dap]Y(Carboxymethyl)D[Phe(3-Me)]Y(Carboxymethyl)[Bip]Y(Carboxymethyl)[Pip][dL][Dab][Cha]VDC-NH2; thioether N-14) | 0.26
CCNC(=O)[C@H](CCN)NC(=O)[C@@H]1CSCC(=O)N[C@@H](Cc2ccncc2)C(=O)N[C@@H](Cc2ccc(OCC(=O)O)cc2)C(=O)N[C@@H](CC(=O)O)C(=O)N[C@@H](Cc2cccc(C)c2)C(=O)N[C@@H](Cc2ccc(OCC(=O)O)cc2)C(=O)N[C@@H](Cc2ccc(-c3ccccc3)cc2)C(=O)N[C@@H](Cc2ccc(OCC(=O)O)cc2)C(=O)N(C)[C@@H](C)C(=O)N[C@H](CC(C)C)C(=O)N[C@@H](CCN)C(=O)N[C@@H](CC2CCCCC2)C(=O)N[C@@H](C(C)C)C(=O)N[C@@H]([C@@H](C)O)C(=O)N1 [Compound 1858] ({CH2CO}-[4Pal]Y(Carboxymethyl)D[Phe(3-Me)]Y(Carboxymethyl)[Bip]Y(Carboxymethyl)[NMeA][dL][Dab][Cha]VTC[Dab]-NHEt; thioether N-14) | 0.01
C#CC[C@H](NC(=O)[C@@H](C)NC(=O)[C@@H]1CSCC(=O)N[C@@H](Cc2cnc[nH]2)C(=O)N[C@@H](Cc2ccc(OCC(=O)O)cc2)C(=O)N[C@@H](CC(=O)O)C(=O)N[C@@H](Cc2c[nH]c3ccccc23)C(=O)N[C@@H](C(C)C)C(=O)N[C@@H](Cc2ccc(-c3ccccc3)cc2)C(=O)N[C@@H](C(C)CC)C(=O)N(C)[C@@H](C)C(=O)N[C@H](CC(C)C)C(=O)N[C@@H](CCN)C(=O)N[C@@H](CC2CCCCC2)C(=O)N[C@@H](C(C)(C)O)C(=O)N[C@@H](CO)C(=O)N1)C(=O)O (stereo partly drawn) [Compound 2239] ({CH2CO}-HY(Carboxymethyl)DWV[Bip][Ile(3ξ)][NMeA][dL][Dab][Cha][Val(3-OH)]SC[dA][Pra]-OH; thioether N-14) | 0.02
CCNC(=O)[C@H](CCN)NC(=O)[C@@H]1CSCC(=O)N[C@@H]([C@@H](C)O)C(=O)N[C@@H](Cc2cccc(C#N)c2)C(=O)N[C@@H](CC(=O)O)C(=O)N[C@@H](Cc2cccc(C)c2)C(=O)N[C@@H](Cc2cccc(F)c2)C(=O)N[C@@H](Cc2ccc(-c3ccccc3)cc2)C(=O)N[C@@H](Cc2ccc(OCC(=O)O)cc2)C(=O)N(C)[C@@H](C)C(=O)N[C@H](CC(C)C)C(=O)N[C@@H](CCN)C(=O)N[C@@H](CC2CCCCC2)C(=O)N[C@@H](C(C)(C)O)C(=O)N[C@@H](CO)C(=O)N1 [Compound 1842] ({CH2CO}-T[Phe(3-CN)]D[Phe(3-Me)][Phe(3-F)][Bip]Y(Carboxymethyl)[NMeA][dL][Dab][Cha][Val(3-OH)]SC[Dab]-NHEt; thioether N-14) | 0.02
CC(=O)NCCCC[C@@H]1NC(=O)[C@H](C(C)C)NC(=O)[C@H](CC2CCCCC2)NC(=O)[C@H](CCC(=O)O)NC(=O)[C@@H](CC(C)C)NC(=O)[C@H](C)N(C)C(=O)[C@H](Cc2cnc[nH]2)NC(=O)[C@H](Cc2ccc(-c3ccccc3)cc2)NC(=O)[C@H](CC(C)C)NC(=O)[C@H](Cc2cccc(C)c2)NC(=O)[C@H](CC(=O)O)NC(=O)[C@H](Cc2ccc(OCC(=O)O)cc2)NC(=O)[C@H](Cc2ccc(OCC(=O)O)cc2)NC(=O)CSC[C@@H](C(=O)N[C@H](C)C(N)=O)NC1=O [Compound 2124] ({CH2CO}-Y(Carboxymethyl)Y(Carboxymethyl)D[Phe(3-Me)]L[Bip]H[NMeA][dL]E[Cha]VK(Ac)C[dA]-NH2; thioether N-14) | 0.04
CC(C)C[C@@H]1NC(=O)[C@H](CCN)NC(=O)[C@@H](CC(C)C)NC(=O)[C@H](C)N(C)C(=O)[C@H](Cc2c[nH]c3ccccc23)NC(=O)[C@H](Cc2ccc(-c3ccccc3)cc2)NC(=O)[C@H](C(C)C)NC(=O)[C@H](Cc2c[nH]c3ccccc23)NC(=O)[C@H](CC(=O)O)NC(=O)[C@H](Cc2ccc(O)cc2)NC(=O)[C@H](CC(N)=O)NC(=O)CSC[C@@H](C(=O)N[C@@H](C)C(N)=O)NC(=O)[C@H]([C@@H](C)O)NC(=O)[C@H](C(C)C)NC1=O [Compound 1263] ({CH2CO}-NYDWV[Bip]W[NMeA][dL][Dab]LVTCA-NH2; thioether N-14) | 0.89
CC(C)C[C@H]1NC(=O)[C@H](C)N(C)C(=O)[C@H](C(C)C)NC(=O)[C@H](Cc2ccc(-c3ccccc3)cc2)NC(=O)[C@H](C(C)C)NC(=O)[C@H](Cc2c[nH]c3ccccc23)NC(=O)[C@H](CC(N)=O)NC(=O)[C@H](Cc2ccc(OCC(=O)O)cc2)NC(=O)[C@H](Cc2ccccc2)NC(=O)CSC[C@@H](C(=O)N[C@@H](C)C(=O)NCCCCCN)NC(=O)[C@H](CO)NC(=O)C(C(C)C)NC(=O)[C@H](CC2CCCCC2)NC(=O)[C@H](CC(N)=O)NC1=O (stereo partly drawn) [Compound 2240] ({CH2CO}-FY(Carboxymethyl)NWV[Bip]V[NMeA][dL]N[Cha][ξV]SCA-{NH(CH2)5NH2}; thioether N-14) | 0.04
CCCC[C@H]1NC(=O)[C@H](C)N(C)C(=O)[C@H](C(C)C)NC(=O)[C@H](Cc2ccc(-c3ccccc3)cc2)NC(=O)[C@H](CC(C)C)NC(=O)[C@H](Cc2c[nH]c3ccccc23)NC(=O)[C@H](CC(=O)O)NC(=O)[C@H](Cc2ccc(O)cc2)NC(=O)[C@H](Cc2ccccc2)NC(=O)CSC[C@@H](C(=O)N[C@@H](C)C(N)=O)NC(=O)[C@H](CO)NC(=O)[C@H](C(C)C)NC(=O)[C@H](CC(C)C)NC(=O)[C@H](CC(N)=O)NC1=O [Compound 1753] ({CH2CO}-FYDWL[Bip]V[NMeA][dNle]NLVSCA-NH2; thioether N-14) | 0.03
CC(C)C[C@@H]1NC(=O)[C@H](CCN)NC(=O)[C@@H](CC(C)C)NC(=O)[C@H](C)N(C)C(=O)[C@H](CCCNC(=N)N)NC(=O)[C@H](Cc2ccc(-c3ccccc3)cc2)NC(=O)[C@H](C(C)C)NC(=O)[C@H](Cc2c[nH]c3ccccc23)NC(=O)[C@H](CC(=O)O)NC(=O)[C@H](Cc2ccc(OCC(=O)O)cc2)NC(=O)[C@H](CN)NC(=O)CSC[C@@H](C(=O)N[C@@H](C)C(N)=O)NC(=O)[C@H]([C@@H](C)O)NC(=O)[C@H](C(C)C)NC1=O [Compound 1450] ({CH2CO}-[Dap]Y(Carboxymethyl)DWV[Bip]R[NMeA][dL][Dab]LVTCA-NH2; thioether N-14) | 0.06
CC(C)C[C@@H]1NC(=O)[C@H](Cc2c[nH]c3ccccc23)NC(=O)[C@H](CC(=O)O)NC(=O)[C@H](Cc2ccc(C(=O)O)cc2)NC(=O)[C@H](Cc2ccc(OCC(=O)O)cc2)NC(=O)CSC[C@@H](C(N)=O)NC(=O)[C@H](CCCCN)NC(=O)[C@H](C(C)C)NC(=O)[C@H](CC(C)C)NC(=O)[C@H](CC(N)=O)NC(=O)[C@@H](CC(C)C)NC(=O)[C@H](C)N(C)C(=O)[C@H](C(C)C)NC(=O)[C@H](Cc2ccc(-c3ccccc3)cc2)NC1=O [Compound 2258] ({CH2CO}-Y(Carboxymethyl)[Phe(4-COOH)]DWL[Bip]V[NMeA][dL]NLVKC-NH2; thioether N-14) | 0.16
